Data on 2 molecules can be found in EPA's ToxValDB 9.5 (doi:10.2903/j.efsa.2011.1941).

For one data set, the system named is Apis mellifera. As to conditions: acute; duration: 48 hours; dermal; mortality.
Another data set relates to Daphnia magna. As to conditions: chronic/long-term; duration: 21 days; reproduction.
The subject of a further data set is Typhlodromus pyri. The conditions noted are these: chronic/long-term.
Another data set deals with Aphidius rhopalosiphi. As to conditions: chronic/long-term.
Another data set deals with Pimephales promelas. As to conditions: chronic/long-term; duration: 36 days; growth.
Another data set relates to Lepomis macrochirus. As to conditions: acute; duration: 96 hours; mortality.

Bounds are passed on as bounds.

A word on the NOAEL: it is the highest tested level that showed no adverse finding. The molecule `Nc1ccc(OC(F)(F)F)cc1` [4-Trifluoromethoxyaniline] came in with an NOAEL with Rattus norvegicus (short-term, duration: 6 days) of 0.5 mg/kg-day.

Regarding `O=C(NC(=O)c1ccccc1Cl)Nc1ccc(OC(F)(F)F)cc1` [Triflumuron], the NOEC is 6.9 mg/kg-day in the data set on Anas platyrhynchos (reproductive); 1.65 mg/kg-day with Colinus virginianus (reproduction developmental); more than 378 mg/kg in the data set with Tagia sp. (chronic/long-term, duration: 56 days, reproduction); 3.2e-05 mg/L in the data set on Daphnia magna; not below 0.0228 mg/L with Pimephales promelas. The LC50 is 180 mg/kg-day with Anas platyrhynchos (short-term, oral, feed, mortality); more than 805 mg/kg-day in the data set with Colinus virginianus (acute, oral, diet, mortality); more than 500 mg/kg in the data set with Tagia sp. (acute, duration: 14 days, mortality); more than 0.0208 µg/mL in the data set with Lepomis macrochirus. The LD50 is 561 mg/kg-day in the data set on Colinus virginianus (acute, oral, mortality); more than 200 µg/piece in the data set on Apis mellifera; more than 5000 mg/kg-day with Rattus norvegicus (acute, oral, mortality). In the data set on Rattus norvegicus (chronic), this molecule came in with an NOEL of 142 mg/kg-day. Further, the NOAEL is 0.82 mg/kg-day with Rattus norvegicus (chronic, duration: 2 years, hematological) and 3.6 mg/kg-day in the data set on Rattus norvegicus (subchronic, duration: 90 days, oral, hematological). In addition, the LEL was 384 g/ha in the data set with Typhlodromus pyri (duration: 7 days, mortality); 384 g/ha with Typhlodromus pyri (reproduction); 300 g/ha with Aphidius rhopalosiphi (mortality); 300 g/ha in the data set with Aphidius rhopalosiphi (reproduction).
